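Growth conditions: 96-well plates. Treatment: test compound, 48 hours, 5 concentrations. Analysis: linear interpolation between bracketing concentrations; unreached endpoints set to highest concentration. GI50: concentration for 50% inhibition of growth.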 The source made the active and inactive calls. Rule as the data show it: active = GI50 up to about 1.1 µM and inactive = higher.
Key:
Assay in all cases: growth of human tumour cells (NCI), 48 h
786-0 = tested on: 786-0
A549 = tested on: A549
HL-60 = tested on: HL-60
K562 = tested on: K562
KM12 = tested on: KM12
M14 = tested on: M14
NCI-H460 = tested on: NCI-H460
NCI-H522 = tested on: NCI-H522
OVCAR-4 = tested on: OVCAR-4
OVCAR-5 = tested on: OVCAR-5
RPMI-8226 = tested on: RPMI-8226
SF-295 = tested on: SF-295
SN12C = tested on: SN12C
SR = tested on: SR
SW-620 = tested on: SW-620
U-251 = tested on: U-251
UACC-257 = tested on: UACC-257
BT-549 = tested on: BT-549
MDA-MB-231 = tested on: MDA-MB-231
T47D = tested on: T47D

Row | SMILES | GI50 (786-0) | GI50 (A549) | GI50 (HL-60) | GI50 (K562) | GI50 (KM12) | GI50 (M14) | GI50 (NCI-H460) | GI50 (NCI-H522) | GI50 (OVCAR-4) | GI50 (OVCAR-5) | GI50 (RPMI-8226) | GI50 (SF-295) | GI50 (SN12C) | GI50 (SR) | GI50 (SW-620) | GI50 (U-251) | GI50 (UACC-257) | GI50 (BT-549) | GI50 (MDA-MB-231) | GI50 (T47D)
1 | CCNC(=O)C(O)C1(O)CCC2[C@@H]3CCC4=CC(=O)C=C[C@]4(C)C3[C@@H](O)C[C@@]21C (some centres not stated) | > 100 µM (inactive) | 86.9 µM (inactive) | 29.8 µM (inactive) | > 91 µM (inactive) | > 100 µM (inactive) | > 100 µM (inactive) | > 100 µM (inactive) | > 100 µM (inactive) | > 100 µM (inactive) | > 100 µM (inactive) | 22.4 µM (inactive) | > 100 µM (inactive) | 53.2 µM (inactive) | 63 µM (inactive) | > 100 µM (inactive) | > 100 µM (inactive) | > 100 µM (inactive) |  |  | 
2 | CCCCCC(C[N+]1(C)CCOCC1)C(=O)/C=C/c1ccccc1 (configuration not stated) | 2 µM (inactive) | 22.9 µM (inactive) | 6.89 µM (inactive) | 3.34 µM (inactive) | 2.8 µM (inactive) | 11.1 µM (inactive) | 16.4 µM (inactive) | 3.03 µM (inactive) | 11.2 µM (inactive) | 17.4 µM (inactive) | 1.54 µM (inactive) | 7.74 µM (inactive) | 13.5 µM (inactive) | 2.91 µM (inactive) | 2.62 µM (inactive) | 7.67 µM (inactive) | 13.4 µM (inactive) |  |  | 
3 | Cc1nc2ccc(F)cc2c2c1CCN2c1ccc(Cl)cc1 | 7.66 µM (inactive) | 17.2 µM (inactive) | 2.01 µM (inactive) | 2.26 µM (inactive) |  | 8.85 µM (inactive) | 7.38 µM (inactive) | 6.78 µM (inactive) | 13.4 µM (inactive) | 33.9 µM (inactive) |  | 4.33 µM (inactive) | 11.8 µM (inactive) |  | 11.3 µM (inactive) | 9.1 µM (inactive) | 3.51 µM (inactive) | 19.5 µM (inactive) | 4.04 µM (inactive) | 
4 | NC(=O)CCC(NC(=O)c1cccc2c(=O)c3ccccc3[nH]c12)C(=O)O (configuration not stated) | > 100 µM (inactive) | > 100 µM (inactive) | > 100 µM (inactive) | > 100 µM (inactive) | > 100 µM (inactive) | > 100 µM (inactive) |  | > 100 µM (inactive) | > 100 µM (inactive) | > 100 µM (inactive) | > 100 µM (inactive) | > 100 µM (inactive) | > 100 µM (inactive) | > 100 µM (inactive) | > 100 µM (inactive) | > 100 µM (inactive) |  |  | > 100 µM (inactive) | 
5 | CC(=O)N1[C@H](C(=O)O)CS[C@H]1c1ccncc1 | > 100 µM (inactive) | > 100 µM (inactive) | > 100 µM (inactive) | > 100 µM (inactive) | > 100 µM (inactive) | > 100 µM (inactive) | > 100 µM (inactive) |  | > 100 µM (inactive) | > 100 µM (inactive) | > 100 µM (inactive) | > 100 µM (inactive) | > 100 µM (inactive) | > 100 µM (inactive) | > 100 µM (inactive) |  | > 100 µM (inactive) |  |  | 
6 | Cc1ccc(/N=N/c2c(O)c(C(=O)O)cc3ccccc23)cc1C | > 100 µM (inactive) | > 100 µM (inactive) | 46.3 µM (inactive) | 82.6 µM (inactive) | > 100 µM (inactive) | > 100 µM (inactive) | > 100 µM (inactive) | > 100 µM (inactive) | > 100 µM (inactive) | > 100 µM (inactive) | > 100 µM (inactive) | > 100 µM (inactive) |  | > 100 µM (inactive) | > 100 µM (inactive) | 80.7 µM (inactive) | > 100 µM (inactive) | > 100 µM (inactive) | > 100 µM (inactive) | 
7 | O=C(Cl)c1cc([N+](=O)[O-])cc([N+](=O)[O-])c1 | > 100 µM (inactive) | > 100 µM (inactive) | > 100 µM (inactive) | > 100 µM (inactive) | > 100 µM (inactive) | > 100 µM (inactive) | > 100 µM (inactive) | > 100 µM (inactive) | > 100 µM (inactive) | > 100 µM (inactive) | > 100 µM (inactive) | > 100 µM (inactive) |  | > 100 µM (inactive) | > 100 µM (inactive) | > 100 µM (inactive) | > 100 µM (inactive) |  |  | 
8 | O/N=C(\CC(O)(C(F)(F)F)C(F)(F)F)c1cccc(Cl)c1 | 35.5 µM (inactive) | 35.9 µM (inactive) | 23.5 µM (inactive) | 30.2 µM (inactive) | 34.8 µM (inactive) | 22.8 µM (inactive) | 43.3 µM (inactive) | 30.5 µM (inactive) | 34.5 µM (inactive) | 47.9 µM (inactive) | 29.9 µM (inactive) | 38.7 µM (inactive) |  | 45.3 µM (inactive) | 37.8 µM (inactive) | 20.2 µM (inactive) | 35.6 µM (inactive) |  | 22.5 µM (inactive) | 32.7 µM (inactive)
9 | Clc1ccc(C[P+](c2ccccc2)(c2ccccc2)c2ccccc2)c(Cl)c1 |  | 4.47 µM (inactive) | 0.8 µM (active) |  | 1.69 µM (inactive) | 3.18 µM (inactive) | 2.4 µM (inactive) | 1.67 µM (inactive) | 4.04 µM (inactive) | 2.37 µM (inactive) | 0.463 µM (active) | 3.08 µM (inactive) | 2.7 µM (inactive) | 1.89 µM (inactive) | 2.94 µM (inactive) | 2.49 µM (inactive) | 1.04 µM (active) |  |  | 
10 | C[C@H]1C(=O)O[C@@H]1[C@H]1COC(C)(C)O1 |  | > 100 µM (inactive) | 0.769 µM (active) |  | > 100 µM (inactive) | > 100 µM (inactive) | > 100 µM (inactive) |  | > 100 µM (inactive) | > 100 µM (inactive) | > 100 µM (inactive) | > 100 µM (inactive) | > 100 µM (inactive) | > 100 µM (inactive) | > 100 µM (inactive) | > 100 µM (inactive) | > 100 µM (inactive) | > 100 µM (inactive) | > 100 µM (inactive) | 
11 | COc1ccc(-c2cc(-c3ccco3)c(C#N)c(=S)n2C2OC(CO)C(O)C(O)C2O)cc1 (configuration not stated) | > 100 µM (inactive) | > 100 µM (inactive) |  | > 100 µM (inactive) | > 100 µM (inactive) | 52 µM (inactive) | > 100 µM (inactive) | > 100 µM (inactive) | > 100 µM (inactive) | > 100 µM (inactive) | > 100 µM (inactive) | 80.4 µM (inactive) | > 100 µM (inactive) |  | > 100 µM (inactive) | 82.8 µM (inactive) | > 100 µM (inactive) | > 100 µM (inactive) | 36.2 µM (inactive) | 
12 | CC(=O)[O-].[O-]c1c(Cl)cc(Cl)cc1/C=N/Nc1ccccn1.[Zn+2] | 1.59 µM (inactive) | 3.65 µM (inactive) | 0.234 µM (active) | 0.372 µM (active) | 6.3 µM (inactive) | 0.387 µM (active) | 1.38 µM (inactive) | 0.41 µM (active) |  | 2 µM (inactive) | 0.325 µM (active) | 1.47 µM (inactive) | 5.82 µM (inactive) | 0.16 µM (active) | 1.74 µM (inactive) | 3.12 µM (inactive) | 0.418 µM (active) |  |  | 
13 | O=C1c2ccccc2C(=O)N1CC(O)COc1cccc2ccccc12 (configuration not stated) |  | > 100 µM (inactive) | > 100 µM (inactive) | > 100 µM (inactive) |  | > 100 µM (inactive) | > 100 µM (inactive) | > 100 µM (inactive) |  | > 100 µM (inactive) | > 100 µM (inactive) | 98.2 µM (inactive) |  | > 100 µM (inactive) | > 100 µM (inactive) | > 100 µM (inactive) | > 100 µM (inactive) |  | > 100 µM (inactive) | > 10 µM (inactive)
14 | CN(C)C=[N+]=[N-] | > 100 µM (inactive) | > 100 µM (inactive) | > 100 µM (inactive) | > 100 µM (inactive) | > 100 µM (inactive) | > 100 µM (inactive) | > 100 µM (inactive) | 0.17 µM (active) | > 100 µM (inactive) | > 100 µM (inactive) | > 100 µM (inactive) | > 100 µM (inactive) | > 100 µM (inactive) | > 100 µM (inactive) | > 100 µM (inactive) | > 100 µM (inactive) | > 100 µM (inactive) |  |  | 
15 | CCOC(=O)Cc1ccc2c(c1O)C(=O)c1c(ccc(CC(=O)OCC)c1O)C2=O | > 100 µM (inactive) | > 100 µM (inactive) | > 100 µM (inactive) | > 100 µM (inactive) | > 100 µM (inactive) | > 100 µM (inactive) |  | > 100 µM (inactive) |  | > 100 µM (inactive) | > 100 µM (inactive) | > 100 µM (inactive) | > 100 µM (inactive) | > 100 µM (inactive) | > 100 µM (inactive) | 83.8 µM (inactive) | > 100 µM (inactive) |  |  | 
16 | CCOC(=S)SSSC(=S)OCC | 15.2 µM (inactive) | 33.7 µM (inactive) | 76.6 µM (inactive) | 26.3 µM (inactive) | 41.4 µM (inactive) | 27 µM (inactive) | 30.7 µM (inactive) |  |  | 28.6 µM (inactive) | 24 µM (inactive) | 51.5 µM (inactive) | 21.6 µM (inactive) | 13.5 µM (inactive) | 32.5 µM (inactive) | 31.6 µM (inactive) | 50.5 µM (inactive) |  | 33.1 µM (inactive) | 4.22 µM (inactive)
17 | Cc1ccc(S(=O)(=O)OCOS(=O)(=O)c2ccc(C)cc2)cc1 | > 100 µM (inactive) | > 100 µM (inactive) | > 100 µM (inactive) | > 100 µM (inactive) | > 100 µM (inactive) | > 100 µM (inactive) | 58.1 µM (inactive) | > 100 µM (inactive) |  | > 100 µM (inactive) | > 100 µM (inactive) | > 100 µM (inactive) | > 100 µM (inactive) | > 100 µM (inactive) | > 100 µM (inactive) | > 100 µM (inactive) | > 100 µM (inactive) |  |  | 

Source: ChEMBL document CHEMBL1201862, “PubChem BioAssay data set” (2004)
